Values quoted from earlier work, collected in patent US20100003364A1, “REDUCED-HANGOVER ALCOHOLIC BEVERAGE COMPRISING TURMERIC” (priority 2006, published 2010).

Settings: biological activities listed for compounds from Curcuma longa L.

Compound	Activity
CC(C)=CC(=O)CC(C)c1ccc(C)cc1 (stereo not shown) [Ar-turmerone]	snakebite
O=C(C=Cc1ccc(O)cc1)CC(=O)C=Cc1ccc(O)cc1 [Bisdemethoxy curcumin]	antioxidant
COc1cc(/C=C/C(=O)CC(=O)/C=C/c2ccc([O-])c(OC)c2)ccc1[O-].[Na+].[Na+] [Sodium curcuminate]	anti-inflammatory
Methylcurcumin	L. amazonensis
